Measured values: PMC6053504, “Inhibitory Role of the Mud Crab Short Neuropeptide F in Vitellogenesis and Oocyte Maturation via Autocrine/Paracrine Signaling” (Frontiers in Endocrinology, 2018)
Where no end group is shown, it is not given here.

How the values were obtained:
[1] = test system: denuded oocytes; parameters: method as in 2 sources, one per row (each row's own in cited_ref): ref 76 = [76]; PMID 20382141; doi:10.1016/j.ydbio.2010.03.027; 76. Pang Y Thomas P . Role of G protein-coupled estrogen receptor 1, GPER, in inhibition of oocyte maturation by endogenous estrogens in zebrafish . Dev Biol. ( 2010 ) 342 : 194 – 206 . 10.1016/j.ydbi ||| ref 77 = [77]; PMID 21636738; doi:10.1095/biolreprod.111.091884; 77. Zhou R Tsang AH Lau SW Ge W . Pituitary adenylate cyclase-activating polypeptide (PACAP) and its receptors in the zebrafish ovary: evidence for potentially dual roles of pacap in controlling final; settings: zebrafish, via GPER; cited from earlier work
[2] = molecular target: T1, Sp-sNPFR (Scylla paramamosain, UniProt A0A345ZFF5); experiment: Ligand-receptor activation of signaling, dual-luciferase (pCRE-luc) reporter in HEK293T; type: cell-based; settings: HEK293T transiently co-transfected with Sp-sNPFR/pEGFP-N1, pCRE-luc, pRL-TK; incubation 6 h; dual-luciferase read-out (Figure 3B legend: concentration of cAMP determined); nonlinear curve fitting; mean ± SD, three biological replicates
T1 sequence (A0A345ZFF5 1-458): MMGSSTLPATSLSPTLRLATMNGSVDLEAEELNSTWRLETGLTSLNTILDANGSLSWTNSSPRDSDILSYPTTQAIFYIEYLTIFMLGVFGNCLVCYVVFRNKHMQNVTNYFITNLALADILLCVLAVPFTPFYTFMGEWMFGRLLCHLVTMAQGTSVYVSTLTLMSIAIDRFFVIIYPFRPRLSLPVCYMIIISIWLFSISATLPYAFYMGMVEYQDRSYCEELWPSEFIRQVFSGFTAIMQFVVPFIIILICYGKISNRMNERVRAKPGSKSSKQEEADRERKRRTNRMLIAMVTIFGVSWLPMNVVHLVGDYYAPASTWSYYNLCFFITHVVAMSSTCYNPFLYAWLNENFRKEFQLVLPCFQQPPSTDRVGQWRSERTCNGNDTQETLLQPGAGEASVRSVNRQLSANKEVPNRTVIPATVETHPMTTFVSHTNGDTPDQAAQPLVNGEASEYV
Experimental: Human embryonic kidney cell lines (HEK293T) were maintained in high glucose DMEM (Hyclone) supplemented with 10% fetal bovine serum (Gibco), 100 U/mL penicillin and 100 μg/mL streptomycin (Hyclone) at 37°C in a humidified incubator (Thermo) containing 5% CO2. Cells were seeded overnight in 6-well plates and transiently co-transfected with 1 μg of the Sp-sNPFR/pEGFP-N1 plasmid, 0.8 μg of the reporter gene pCRE-luc, and 0.4 μg of internal control gene pRL-TK using 5 μL Lipofectamine 2000 (Invitrogen) reagent following the manufacturer's protocols. Empty pEGFP-N1 plasmid was used for mock transfection.
HEK293T transiently co-transfected with Sp-sNPFR/pEGFP-N1 and dual-luciferase reporter system vectors were grown to 90% confluency in a 24-well plate. Cells were first treated with synthetic Sp-sNPF peptide mixture and the mixture containing 9 synthetic FLPs (GL Biochem, Table 2) at 1 μM each. Further, various concentrations of individual peptides were used to record dose-dependent curves. After incubation for 6 h, ligand-induced changes in luciferase activity were measured by GloMax® 20/20 Luminometer (Promega) with Dual-Luciferase® Reporter Assay System Kit (Promega).
All values are expressed as mean ± SD. Multiple sequence alignment of sNPFR sequences was performed with ClustalX and embellished by LaTEX TexShade ([57]). Data of ligand-receptor assays were analyzed using nonlinear curve fitting (GraphPad Prism 6.0) to obtain activation curves and EC50 values. The mRNA levels of Sp-Vg and Sp-VgR gene were normalized against the internal control β-actin, and the relative expression was calculated using the 2^−ΔΔCt method. Statistical significance was determined using one-way ANOVA followed by Duncan's multiple range tests. All statistical analyses were performed using IBM SPSS Statistics 20.0. Pictures were drawn by GraphPad Prism 6.0 and modified with Adobe Photoshop CS5.

| Compound | inhibition of spontaneous oocyte maturation [1] | EC50 [2] |
| --- | --- | --- |
| C[C@]12CC[C@@H]3c4ccc(O)cc4CC[C@H]3[C@@H]1CC[C@@H]2O [E2, Estradiol] | partly inhibited the spontaneous maturation of the denuded oocytes |  |
| APPSMRLRF-NH2 [Sp-sNPF1] |  | 1.2 µM |
| KDARTPALRLRF-NH2 [Sp-sNPF3] |  | 8.5 µM |
| SMPTLRLRF-NH2 [Sp-sNPF2] |  | 3.8 µM |
